One assay has as its target T1, α2C adrenergic receptors (Homo sapiens, UniProt P18825).
T1 construct: expressed in transfected cells; host or cells: CHO cells
T1 sequence (P18825 1-462): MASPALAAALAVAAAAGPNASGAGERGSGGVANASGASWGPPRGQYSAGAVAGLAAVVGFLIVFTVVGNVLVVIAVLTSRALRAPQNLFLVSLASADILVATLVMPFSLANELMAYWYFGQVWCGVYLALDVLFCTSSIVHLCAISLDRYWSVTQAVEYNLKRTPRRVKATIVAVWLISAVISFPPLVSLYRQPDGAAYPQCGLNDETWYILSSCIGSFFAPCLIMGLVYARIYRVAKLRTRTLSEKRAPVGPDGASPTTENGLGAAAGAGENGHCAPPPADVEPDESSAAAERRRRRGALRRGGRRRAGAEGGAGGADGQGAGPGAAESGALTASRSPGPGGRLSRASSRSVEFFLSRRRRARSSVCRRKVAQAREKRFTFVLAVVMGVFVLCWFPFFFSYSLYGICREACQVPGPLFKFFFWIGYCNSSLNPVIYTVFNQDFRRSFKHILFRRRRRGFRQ
As to the kind of experiment: Radioligand binding assay, adrenergic α2C receptors. Conditions: test compound 1×10^−6 M. The text has this:
(§1) The specific ligand binding to the receptors is defined as the difference between the total binding and the non-specific binding determined in the presence of the excess of unlabelled ligand.
(§2) The results are expressed as a percent of control specific binding ((measured specific binding/control specific binding)×100) and as a percent inhibition of control specific binding (100−((measured specific binding/control specific binding)×100)) obtained in the presence of the test compounds. The specific ligand binding to the receptors is defined as the difference between the total binding and the nonspecific binding determined in the presence of an excess of unlabelled ligand. Scintillation counting was the method of detection of ligand binding. The IC50 values (concentration causing a half-maximal inhibition of control specific binding) were determined by non-linear regression analysis of the competition curves generated with mean replicate values using Hill equation curve fitting (Y=D+[(A−D)/(1+(C/C50)nH)], where Y=specific binding, D=minimum specific binding, A=maximum specific binding, C=compound concentration, C50=IC50, and nH=slope factor). This analysis was performed using a software developed at Cerep (Hill software) and validated by comparison with data generated by the commercial software SigmaPlot® 4.0 for Windows® (© 1997 by SPSS Inc.). The inhibition constants (Ki) were calculated using the Cheng Prusoff equation (Ki=IC50/(1+(L/KD)), where L=concentration of radioligand in the assay, and KD=affinity of the radioligand for the receptor). A scatchard plot was used to determine the Kd.
Experimental conditions for tests are given in Table 7, and results of tests for representative compounds are given in Tables 8 (α1 receptors) and in Tables 9 (α2C receptors).

Another assay has as its target T2, receptors D4.4 (Homo sapiens, UniProt P21917).
T2 sequence (P21917 1-419): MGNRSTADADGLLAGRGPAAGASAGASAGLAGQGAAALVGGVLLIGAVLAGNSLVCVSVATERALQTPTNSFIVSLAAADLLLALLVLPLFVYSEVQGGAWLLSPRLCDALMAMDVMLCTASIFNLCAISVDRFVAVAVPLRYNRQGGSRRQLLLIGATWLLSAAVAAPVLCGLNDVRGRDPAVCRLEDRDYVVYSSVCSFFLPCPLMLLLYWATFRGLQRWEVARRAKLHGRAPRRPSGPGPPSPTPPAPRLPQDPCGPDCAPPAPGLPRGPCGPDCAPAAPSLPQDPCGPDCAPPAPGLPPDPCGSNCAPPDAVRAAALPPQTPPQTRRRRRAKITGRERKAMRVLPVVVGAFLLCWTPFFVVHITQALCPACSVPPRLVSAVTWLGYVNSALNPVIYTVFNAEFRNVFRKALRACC
The experiment in a line: Radioligand binding assay, dopaminergic D4 (D4.4) receptors. Conditions: test compound 1×10^−6 M.
Excerpt: as §1, §2
Experimental conditions for tests are given in Table 1, the results of tests for representative compounds are given in Tables 2a and 2b (receptors D2 and D3) and in Table 3 (receptors D4).

The next assay deals with T3, 5-HT7 receptor (Homo sapiens, UniProt P34969).
T3 construct: purchased PerkinElmer
As to the kind of experiment: Radioligand binding assay, serotoninergic 5-HT7 receptors.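 Note: test compound at 1 µM.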 To be noted: binding assay result in %, Table 5a. Put shortly:
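Ki values used the Cheng–Prusoff equation, with KD from Scatchard analysis, applied to IC50 from Hill fits of human 5-HT7 radioligand competition curves. Bound radioligand was counted by scintillation, and excess unlabelled ligand set the non-specific binding.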

For a further assay, the target named is T4, 5-HT6 receptor (Homo sapiens, UniProt P50406).
T4 construct: purchased PerkinElmer
The experiment in a line: Radioligand binding assay, serotoninergic 5-HT6 receptors.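 For 5-HT6 [%]: test compound at 1 µM.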 Conditions: for inhibition at 1 µM / 5-HT6 [%]: binding assay result in %, Table 5a; for Ki: read-out: Inhibition constants Ki, 5-HT6. Put shortly: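 Values are Ki from Cheng–Prusoff, taking IC50 from Hill nonlinear regression of competition curves and KD from a Scatchard plot. Specific binding was total minus binding with excess unlabelled ligand. Radioligand displacement was detected by scintillation counting, and data were also reported as percent of control specific binding.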

SMILES strings stand for the structures.

T3 sequence (P34969 whole entry): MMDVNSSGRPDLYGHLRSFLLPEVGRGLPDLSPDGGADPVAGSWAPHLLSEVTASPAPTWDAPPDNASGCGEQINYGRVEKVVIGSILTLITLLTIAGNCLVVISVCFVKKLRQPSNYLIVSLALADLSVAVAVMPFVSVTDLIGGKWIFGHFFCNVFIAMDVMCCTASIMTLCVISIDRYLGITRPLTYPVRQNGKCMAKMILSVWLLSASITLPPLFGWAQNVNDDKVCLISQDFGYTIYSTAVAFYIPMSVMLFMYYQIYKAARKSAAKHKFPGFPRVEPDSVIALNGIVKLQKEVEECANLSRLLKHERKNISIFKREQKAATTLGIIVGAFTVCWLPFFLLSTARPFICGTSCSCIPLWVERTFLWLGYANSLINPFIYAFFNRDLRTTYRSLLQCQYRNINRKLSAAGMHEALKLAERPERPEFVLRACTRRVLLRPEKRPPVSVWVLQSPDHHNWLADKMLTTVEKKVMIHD
T4 sequence (P50406 whole entry): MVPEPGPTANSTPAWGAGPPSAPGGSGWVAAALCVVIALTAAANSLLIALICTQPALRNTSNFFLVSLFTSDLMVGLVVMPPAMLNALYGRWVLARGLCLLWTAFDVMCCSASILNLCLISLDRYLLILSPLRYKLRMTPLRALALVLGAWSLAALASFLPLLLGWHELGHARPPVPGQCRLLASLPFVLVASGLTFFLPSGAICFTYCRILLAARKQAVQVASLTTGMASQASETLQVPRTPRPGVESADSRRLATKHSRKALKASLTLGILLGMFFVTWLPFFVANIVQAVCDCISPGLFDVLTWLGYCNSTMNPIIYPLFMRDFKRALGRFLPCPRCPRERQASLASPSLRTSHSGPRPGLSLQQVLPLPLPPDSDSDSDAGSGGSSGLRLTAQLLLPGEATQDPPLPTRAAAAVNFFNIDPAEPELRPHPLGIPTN

By inhibition is commonly meant the relative decrease from the control value, in per cent. For `O=S(=O)(NC1CCN(CCCc2noc3cc(F)ccc23)C1)c1ccc(Cl)c(F)c1` (stereo not drawn) [Compound 11, 4-Chloro-3-fluoro-N-[1-[3-(6-fluoro-1,2-benzoxazol-3-yl)propyl]-pyrrolidin-3-yl]benzene-sulphonamide], the inhibition at 1 µM at α2C adrenergic receptors was 71%; on receptors D4.4, 92%; at 5-HT7 receptor, 97%; at 5-HT6 receptor, 94%.
The corresponding values for `Cc1c(S(=O)(=O)NC2CCN(CCCc3noc4cc(F)ccc34)C2)sc2ccc(Cl)cc12` (stereo not drawn) [Compound 29, 5-Chloro-N-[1-[3-(6-fluoro-1,2-benzoxazol-3-yl)propyl]pyrrolidin-3-yl]-3-methyl-benzothiophene-2-sulphonamide] are 84%, 16%, 52% and 92%.
Taken in the same sequence, the figures for `O=S(=O)(NC1CN(CCOc2cccc3[nH]ccc23)C1)c1ccc(F)cc1` [Compound 46, 4-Fluoro-N-[1-[2-(1H-indol-4-yloxy)ethyl]azetidin-3-yl]benzene-sulphonamide] were 101%, 72%, 100% and 9%.
Regarding `O=S(=O)(NC1CN(CCOc2cccc3[nH]ccc23)C1)c1cccc(Cl)c1` [Compound 47, 3-Chloro-N-[1-[2-(1H-indol-4-yloxy)ethyl]azetidin-3-yl]benzene-sulphonamide], the inhibition at 1 µM at α2C adrenergic receptors came to 80%; on receptors D4.4, 80%; on 5-HT7 receptor, 100%; at 5-HT6 receptor it was 45%.
Take `Cc1cccc(S(=O)(=O)NC2CN(CCOc3cccc4[nH]ccc34)C2)c1` [Compound 48, N-[1-[2-(1H-Indol-4-yloxy)ethyl]azetidin-3-yl]-3-methyl-benzenesulphonamide]: the inhibition at 1 µM was 105% on α2C adrenergic receptors, 80% on receptors D4.4, 98% on 5-HT7 receptor and 17% on 5-HT6 receptor.
Broadly, the Ki is the equilibrium dissociation constant of an inhibitor or competing ligand from its target. `O=S(=O)(NC1CCN(CCCc2c[nH]c3ccc(F)cc23)C1)c1ccc(F)cc1` (stereo not drawn) [Compound 75, 4-Fluoro-N-[1-[3-(5-fluoro-1H-indol-3-yl)propyl]pyrrolidin-3-yl]benzene-sulphonamide]: the inhibition at 1 µM on α2C adrenergic receptors came to 76%; on receptors D4.4, 76%; on 5-HT7 receptor, 90%; on 5-HT6 receptor it was 94%. Also, the Ki at 5-HT6 receptor is 34 nM.
Turning to `O=S(=O)(NC1CCN(CCCc2c[nH]c3ccc(F)cc23)C1)c1ccc(Cl)cc1` (stereo not drawn) [Compound 77, 4-Chloro-N-[1-[3-(5-fluoro-1H-indol-3-yl)propyl]pyrrolidin-3-yl]-benzenesulphonamide], the inhibition at 1 µM at α2C adrenergic receptors was found to be 78%; at receptors D4.4 it was 78%; on 5-HT7 receptor it was 89%; on 5-HT6 receptor, 95%. Besides, the Ki on 5-HT6 receptor stood at 39 nM.
`O=S(=O)(NC1CCN(CCCc2c[nH]c3ccc(F)cc23)C1)c1cccc2ccccc12` (stereo not drawn) [Compound 79, N-[1-[3-(5-Fluoro-1H-indol-3-yl)propyl]pyrrolidin-3-yl]naphthalene-1-sulphonamide]: the inhibition at 1 µM amounted to 96% on α2C adrenergic receptors, 92% at receptors D4.4, 96% at 5-HT7 receptor and 86% at 5-HT6 receptor.
`O=S(=O)(NC1CCN(CCCc2c[nH]c3ccc(Cl)cc23)C1)c1cccc(F)c1` (stereo not drawn) [Compound 82, N-[1-[3-(5-Chloro-1H-indol-3-yl)propyl]pyrrolidin-3-yl]-3-fluoro-benzene-sulphonamide]: the inhibition at 1 µM came out at 101% at α2C adrenergic receptors, 94% on receptors D4.4, 96% at 5-HT7 receptor and 93% at 5-HT6 receptor. The Ki at 5-HT6 receptor worked out at 37 nM.
The corresponding values for `O=S(=O)(NC1CCN(CCCc2c[nH]c3ccc(Cl)cc23)C1)c1cccc(Cl)c1` (stereo not drawn) [Compound 84, 3-Chloro-N-[1-[3-(5-chloro-1H-indol-3-yl)propyl]pyrrolidin-3-yl]benzenesulphonamide] are 105%, 94%, 98%, 96% and 18 nM.
As for `O=S(=O)(NC1CN(CCOc2cccc3c2OCCO3)C1)c1cccc(F)c1` [Compound 89, N-[1-[2-(2,3-Dihydro-1,4-benzodioxan-8-yloxy)ethyl]azetidin-3-yl]-3-fluoro-benzenesulphonamide], the “α2C [%]” value at α2C adrenergic receptors is reported as 69%. Moreover, the “D4.4 [%]” value at receptors D4.4 is 22%. Besides, the “5-HT7 [%]” value at 5-HT7 receptor turned out to be 96%. Also, the “5-HT6 [%]” value on 5-HT6 receptor is 19%.
For the molecule `CC1(C)Cc2cccc(OCCN3CCC(NS(=O)(=O)c4cccc(O)c4)CC3)c2O1` [Compound 109, N-[1-[2-[(2,2-Dimethyl-3H-benzofuran-7-yl)oxy]ethyl]-4-piperidine]-3-hydroxy-benzenesulphonamide], the “α2C [%]” value at α2C adrenergic receptors was found to be 98%. The “D4.4 [%]” value on receptors D4.4 is given as 69%. Besides, the “5-HT7 [%]” value at 5-HT7 receptor is 99%. The “5-HT6 [%]” value at 5-HT6 receptor was 67%.
The corresponding values for `CC1(C)Cc2cccc(OCCN3CCC(NS(=O)(=O)c4ccc5ccccc5c4)CC3)c2O1` [Compound 110, N-[1-[2-[(2,2-Dimethyl-3H-benzofuran-7-yl)oxy]ethyl]-4-piperidine]naphthalene-2-sulphonamide] are 98%, 42%, 99% and −60%.
Consider `O=S(=O)(NC1CCN(CCOc2cccc3ccccc23)C1)c1cccc(O)c1` (stereo not drawn) [Compound 115, 3-Hydroksy-N-[1-[2-(1-naphthyloxy)ethyl]pyrrolidin-3-yl]benzenesulphonamide], for which, on α2C adrenergic receptors, the “α2C [%]” value was 90%. Also, the “D4.4 [%]” value on receptors D4.4 turned out to be 55%. The “5-HT7 [%]” value at 5-HT7 receptor is listed as 98%. Further, the “5-HT6 [%]” value at 5-HT6 receptor is reported as 88%.
As for `O=S(=O)(NCC1CN(CCCc2noc3cc(F)ccc23)C1)c1cc2ccccc2s1` [Compound 127, N-[[1-[3-(6-Fluoro-1,2-benzoxazol-3-yl)propyl]azetidin-3-yl]methyl]benzo-thiophene-2-sulphonamide], the inhibition at 1 µM at α2C adrenergic receptors came out at 93%. Also, at receptors D4.4, the inhibition at 1 µM worked out at 55%. In addition, the “5-HT7 [%]” value on 5-HT7 receptor turned out to be 96%. In addition, at 5-HT6 receptor, the “5-HT6 [%]” value is on record as 96% and the Ki stood at 18 nM.
For `O=S(=O)(NCC1CN(CCCc2noc3cc(F)ccc23)C1)c1ccc(-c2ccccc2)cc1` [Compound 135, N-[[1-[3-(6-Fluoro-1,2-benzoxazol-3-yl)propyl]azetidin-3-yl]methyl]-4-phenyl-benzenesulphonamide], the inhibition at 1 µM at α2C adrenergic receptors came out at 95%; at receptors D4.4 it was 60%; on 5-HT7 receptor it was 97%; on 5-HT6 receptor, 92%.

The record behind these values is patent US20140135310A1, “SULPHONAMIDE DERIVATIVES OF ALICYCLIC AMINES FOR THE TREATMENT OF CENTRAL NERVOUS SYSTEM DISEASES” (Adamed Sp. z o.o., priority 2011, published 2014).
